In PMC6095874, “Discovery of cationic nonribosomal peptides as Gram-negative antibiotics through global genome mining” (Nature Communications, 2018):
Converted amounts (≈) assume the structure as drawn. Where a SMILES comes first, the peptide text is derived from it. Bridges are numbered along the chain shown (N, C = ends). [ ]: non-standard residue; d: D form. The star is where a group is joined. X1 = CC[C@H](C)CCCCC(=O)*; Dab = NCC[C@H](N)C(=O)O

What was measured:
[1] = Peptide binding to LPS by isothermal titration calorimetry; parameters: species or system Escherichia coli; conditions: 37 °C, 20 mM HEPES pH 7.0
Description: Microcalorimetric experiments of peptide binding to LPS were performed on an MCS isothermal titration calorimeter (Microcal, Northampton, MA) at 37 °C. LPS was prepared as a 50 µM aqueous suspension in 20 mM HEPES buffer (pH 7.0) by suspension, sonication, and temperature cycling between 5 and 70 °C. This suspension was stored at 4 °C overnight prior to use. Aliquots of 100 µM peptide solutions (brevicidine and polymyxin B) were prepared in the same buffer and all solutions were degassed prior to use by stirring under vacuum for 5 min at 37 °C. After thermal equilibration, 5 µL aliquots of the peptide solution were added every 3 min into the lipid-containing cell at 37 °C with constant stirring. The change in heat during the titration steps was registered in real time and raw data were processed using the Origin® 7 software provided with the instrument. In control experiments, the corresponding peptide solution (or LPS solution) was injected into the buffer without LPS (or without peptide).

E. cloacae NRRL-B-425 = type: cell-based, Enterobacter cloacae; conditions: broth microdilution, MHB, 37 °C, 24 h
Description: (§1) MIC was determined by broth microdilution according to CLSI guidelines. The test medium for most species was Mueller–Hinton broth (MHB). Bacteria were grown overnight to early stationary phase and adjusted in MHB to 5.0 × 10^5 c.f.u. mL^−1 in the wells of 96-well microtiter plates (Falcon® 96-Well Flat-Bottom Microplate, Tissue Culture-Treated), mixed with varying concentrations of test compounds and incubated at 37 °C for 24 h. Cell growth was evaluated by measuring the optical density at 595 nm (Thermo Scientific Multiskan FC multiplate photometer) (Waltham, MA, USA), and the MIC was defined as the lowest compound concentration at which no bacterial growth was observed. MHBs containing 10% fetal bovine serum (Gibco), 21 mM MgCl, or 1.0 mg mL^−1 LPS (lipopolysaccharides from E. coli O55:B5, Sigma-Aldrich) was used to test their inhibitory effects.

[2] = system: Staphylococcus aureus (MRSA); type: cell-based; conditions: Supplementary Table 1; MRSA = Methicillin-resistant Staphylococcus aureus ATCC 43300
Description: as §1

[3] = system: Pseudomonas aeruginosa PAO1; type: cell-based
Description: as §1

Candida albicans = type: cell-based; conditions: broth microdilution
[4] = system: K. pneumoniae NRRL-B-3521; type: cell-based, Klebsiella pneumoniae; conditions: broth microdilution, MHB, 37 °C, 24 h
Description: as §1

Saccharomyces cerevisiae = type: cell-based; conditions: broth microdilution
E. coli TOP10 cells = assay: Time-kill assay; type: cell-based, Escherichia coli
Description: An overnight culture of E. coli TOP10 cells was diluted 1:10,000 in MHB and incubated at 37 °C with agitation at 180 rpm for 2 h (early exponential). The bacteria were then challenged with brevicidine (20 μg mL^−1), laterocidine (20 μg mL^−1), or polymyxin B (10 μg mL^−1) at ten times the MIC at room temperature without shaking. An untreated sample of cells was used as a negative control. At intervals, 10 μL aliquots were removed, centrifuged at 10,000 × g for 1 min and resuspended in 1.0 mL of sterile PBS. Tenfold serially diluted suspensions were plated on MHB agar plates and incubated at 37 °C overnight. Colonies were counted and the number of c.f.u. per mL was calculated. For analysis of lysis, 300 μL of culture (OD600 = 1.0) were treated with antibiotics at ten times the MIC for 24 h. Experiments were performed in triplicate.

[5] = system: Colistin-resistant E. coli (E. coli ATCC 25922 carrying mcr-1); assay: MIC by broth microdilution; type: cell-based, Escherichia coli; conditions: MHB, 37 °C, 24 h
Description: as §1

[6] = system: Escherichia coli ATCC 25922; assay: microbe, parasite or virus in culture; type: cell-based
Description: as §1

[7] = system: Klebsiella pneumoniae NRRL-B-408; assay: MIC by broth microdilution; type: cell-based; conditions: Supplementary Table 1; Kp = Klebsiella pneumoniae NRRL-B-408
Description: as §1

Acinetobacter baumannii = assay: MIC by broth microdilution; type: cell-based; conditions: Supplementary Table 1
Description: as §1

[8] = system: Enterobacter cloacae NRRL-B-413; assay: MIC by broth microdilution; type: cell-based; conditions: Supplementary Table 1; En = Enterobacter cloacae NRRL-B-413
Description: as §1

Bacillus subtilis 168 = assay: MIC by broth microdilution; type: cell-based; conditions: Supplementary Table 1; Bs = B. subtilis 168
Description: as §1

Compound | binding to LPS (ITC) [1] | MIC (E. cloacae NRRL-B-425) [µg/mL] | MIC, MRSA [2] [µg/mL] | MIC, Pa ([3]; Supplementary Table 1, Pa = Pseudomonas aeruginosa PAO1) [µg/mL] | MIC (Candida albicans) [µg/mL] | MIC [4] [µg/mL] | MIC (Saccharomyces cerevisiae) [µg/mL] | time to kill all cells in time-kill assay (E. coli TOP10 cells; ten times the MIC (polymyxin B 10 μg mL^−1)) [min] | cell viability in time-kill assay (E. coli TOP10 cells; ten times the MIC, early exponential cells, room temperature, c.f.u. counts, triplicate) | MIC [5] [µg/mL] | MIC, Ec ([6]; Supplementary Table 1, Ec = Escherichia coli ATCC 25922) [µg/mL] | MIC, Kp [7] [µg/mL] | MIC, Ab (Acinetobacter baumannii) [µg/mL] | MIC, En [8] [µg/mL] | MIC, Bs (Bacillus subtilis 168) [µg/mL] | MIC ([3]; broth microdilution, MHB, 37 °C, 24 h) [µg/mL] | MIC ([6]; broth microdilution (CLSI), MHB, 5.0 × 10^5 c.f.u. mL^−1, 37 °C, 24 h, OD 595 nm) [µg/mL]
CC[C@H](C)CCCCC(=O)N[C@@H](CCN)C(=O)N[C@H](C(=O)N[C@@H](CCN)C(=O)N[C@H]1CCNC(=O)[C@H]([C@@H](C)O)NC(=O)[C@H](CCN)NC(=O)[C@H](CCN)NC(=O)[C@H](CC(C)C)NC(=O)[C@@H](Cc2ccccc2)NC(=O)[C@H](CCN)NC1=O)[C@@H](C)O [Polymyxin B, reference compound] (X1-[Dab]T[Dab][Dab][Dab][dF]L[Dab][Dab]T; lactam 4-C (inferred); N-terminus assumed) | strong binding to LPS | 64 (≈ 53.2 µM) | 32 (≈ 26.6 µM) | 1 (≈ 0.831 µM) | >64 | 2 (≈ 1.66 µM) | >64 | ≤ 30 | significantly reducing the viable cell population after 5 min | 16 (≈ 13.3 µM) | 1 (≈ 0.831 µM) | 16 (≈ 13.3 µM) | 4 (≈ 3.32 µM) | 8 (≈ 6.65 µM) | 4 (≈ 3.32 µM) | – | –
CC[C@H](C)CCCCC(=O)N[C@@H](CCN)C(=O)N[C@H](C(=O)N[C@@H](CCN)C(=O)N[C@H]1CCNC(=O)[C@H]([C@@H](C)O)NC(=O)[C@H](CCN)NC(=O)[C@H](CCN)NC(=O)[C@H](CC(C)C)NC(=O)[C@@H](CC(C)C)NC(=O)[C@H](CCN)NC1=O)[C@@H](C)O [Colistin, reference compound] (X1-[Dab]T[Dab][Dab][Dab][dL]L[Dab][Dab]T; lactam 4-C (inferred); N-terminus assumed) | – | – | – | – | – | – | – | – | – | 16 (≈ 13.7 µM) | – | – | – | – | – | 1 (≈ 0.855 µM) | 2 (≈ 1.71 µM)
